Measurements as given in patent US20240083857A1, “2-Methyl-Quinazolines” (Bayer Pharma Aktiengesellschaft, priority 2017, published 2024).

How the values were obtained:
[1] = target: K-Ras^G12C : hSOS1 interaction (Homo sapiens, UniProt Q07889); assay: Biochemical assay 1: K-Ras^G12C interaction assay with hSOS1 (HTRF); assay type: binding; conditions: read-out: Assay 1 (KRAS-SOS Interaction) activity expressed as IC50
Description: Biochemical assay 1: K-Ras^G12C Interaction Assay with hSOS1
This assay quantifies the equilibrium interaction of human SOS1 with K-Ras^Gl2C. Detection of the interaction is achieved by measuring homogenous time-resolved fluorescence resonance energy transfer (HTRF) from antiGST-Europium (FRET donor) bound to GST-K-Ras^G12C to anti-6His-XL665 bound to His-tagged hSOS1 (FRET-acceptor).
The assay buffer contained 5 mM HEPES pH 7.4 (Applichem), 150 mM NaCl (Sigma), 10 mM EDTA (Promega), 1 mM DTT (Thermofisher), 0.05% BSA Fraction V, pH 7.0, (ICN Biomedicals), 0.0025% (v/v) Igepal (Sigma) and 100 mM KF (FLUKA).
Concentrations of protein batches used were optimized to be within the linear range of the HTRF signal. A Ras working solution was prepared in assay buffer containing typically 10 nM GST-hK-RasG12C and 2 nM antiGST-Eu(K) (Cisbio, France). A SOS working solution was prepared in assay buffer containing typically 20 nM His-hSOS1 and 10 nM anti-6His-XL665 (Cisbio, France). An inhibitor control solution was prepared in assay buffer containing 10 nM anti-6His-XL665 without hSOS1.
(§1) Fifty nl of a 100-fold concentrated solution of the test compound in DMSO were transferred into a black microtiter test plate (384 or 1536, Greiner Bio-One, Germany). For this, either a Hummingbird liquid handler (Digilab, MA, USA) or an Echo acoustic system (Labcyte, CA, USA) was used.
(§2) All steps of the assay were performed at 20° C. A volume of 2.5 μl of the Ras working solution was added to all wells of the test plate using a Multidrop dispenser (Thermo Labsystems). After 2 min preincubation, 2.5 μl of the SOS working solution were added to all wells except for those wells at the side of the test plate that were subsequently filled with 2.5 μl of the inhibitor control solution. After 60 min incubation the fluorescence was measured with a Pherastar (BMG, Germany) using the HTRF module (excitation 337 nm, emission 1: 620 nm, emission 2: 665 nm).
(§3) IC50 values were calculated by 4-Parameter fitting using a commercial software package (Genedata Screener, Switzerland).

[2] = target: human SOS1 (loading of human K-Ras^G12C-GDP with fluorescent GTP-analog) (Homo sapiens, UniProt Q07889); assay: Biochemical assay 3: K-Ras^G12C activation assay by hSOS1 (HTRF); conditions: no GTP; for IC50: read-out: Assay 3 (KRAS-Activation by SOS no GTP) activity expressed as IC50; for inhibition at 20 µM: read-out: Assay 3 (KRAS-Activation by SOS no GTP) activity expressed as % inhibition at 20 μM
Excerpt: Biochemical assay 3: K-Ras^G12C Activation Assay by hSOS1
K-Ras is a small GTPase that can bind GDP and GTP. The guanine nucleotide exchange factor SOS catalyzes the activation of K-Ras by promoting the exchange of GDP to GTP. SOS binds to K-Ras-GDP thereby opening the GDP-binding pocket to facilitate GDP release. Rebinding of excess nucleotide leads to dissociation of the K-Ras-SOS intermediate complex leaving K-Ras loaded with the nucleotide.
This assay quantifies human SOS1-mediated loading of human K-Ras^G12C-GDP with a fluorescent GTP-analog. Detection of successful loading is achieved by measuring homogenous time-resolved fluorescence resonance energy transfer (HTRF) from antiGST-Terbium (FRET donor) bound to GST-K-RasG12C to the loaded fluorescent GTP analog (FRET-acceptor).
The fluorescent GTP-analog EDA-GTP-Dy647P1 (2′/3′-O-(2-Aminoethyl-carbamoyl)-guanosine-5′-triphosphate labelled with Dy647P1 (Dyomics GmbH, Germany)) was synthesized by Jena Biosciences GmbH (Germany) and supplied as a 1 mM aqueous solution.
(§4) The assay buffer contained 10 mM HEPES pH 7.4 (Applichem), 150 mM NaCl (Sigma), 5 mM MgCl2 (Sigma), 1 mM DTT (Thermofisher), 0.05% BSA Fraction V, pH 7.0, (ICN Biomedicals), 0.0025% (v/v) Igepal (Sigma).
Concentrations of protein batches used were optimized to be within the linear range of the HTRF signal. A Ras working solution was prepared in assay buffer containing typically 100 nM GST-hK-RasG12C and 2 nM antiGST-Tb (Cisbio, France). A hSOS1 working solution was prepared in assay buffer containing typically 20 nM hSOS1 and 200 nM EDA-GTP-Dy647P1. An inhibitor control solution was prepared in assay buffer containing 200 nM EDA-GTP-Dy647P1 without hSOS1.
as §1
as §2, with “After 10” for “After 2”, “the hSOS1” for “the SOS”, “After 30” for “After 60”
as §3

[3] = target: human SOS1 (nucleotide exchange of K-Ras^G12C) (Homo sapiens, UniProt Q07889); assay: Biochemical assay 2: K-Ras^G12C activation assay by hSOS1 at high GTP concentration (HTRF); conditions: read-out: Assay 2 (KRAS-Activation by SOS high GTP) activity expressed as % inhibition at 20 μM; high GTP; at 20 μM
Excerpt: Biochemical Assay 2: K-Ras^G12C Activation Assay by hSOS1 at High GTP Concentration
This assay quantifies human SOS1-mediated nucleotide exchange of K-Ras^G12C preloaded with a fluorescent […] and in presence of an excess of free GTP. Loaded hK-Ras^G12C generates a high HTRF-signal by energy transfer from antiGST-Terbium (FRET donor) bound to K-Ras to the loaded fluorescent GDP analog (FRET-acceptor). SOS1 activity exchanges the fluorescent GDP for non-fluorescent GTP and therefore leads to a reduction of the HTRF signal.
The fluorescent GDP-analog EDA-GDP-Dy647P1 (2′/3′-O-(2-Aminoethyl-carbamoyl)-guanosine-5′-diphosphate labelled with Dy647P1 (Dyomics GmbH, Germany)) was synthesized by Jena Biosciences GmbH (Germany) and supplied as a 1 mM aqueous solution.
Concentrations of protein batches used were optimized to be within the linear range of the HTRF signal.
Preparation of GST-tagged hK-Ras^Gl2C loaded with fluorescent nucleotide was performed as follows: incubation of 11.5 μM hK-Ras^Gl2C with 5-fold excess GDP-Dy647 nucleotide (54 μM) in 500 μl NLS-buffer (RAS activation Kit Jena Bioscience, Kat. #PR-950) for 10 min at 37° C. Addition of 20 μl 1 M MgCl2 (Sigma) to final 40 mM and store on ice. Purification into buffer (10 mM HEPES pH 7.4 (Applichem), 150 mM NaCl (Sigma), 5 mM MgCl2 (Sigma)) by use of a PD-Minitrap desalting column (GE Healthcare). Concentration of 1 ml purified hK-Ras-GDP-Dy647 is approx. 4-5 μM.
as §4
A Ras working solution was prepared in assay buffer containing typically 80 nM loaded GST-hK-RasG12C-EDA-GDP-Dy647P1 and 2 nM antiGST-Tb (Cisbio, France). A hSOS1 working solution was prepared in assay buffer containing typically 8 nM His-hSOS1 and 100 μM GTP (Jena Bioscience, Germany). An inhibitor control solution was prepared in assay buffer containing the same concentration of […].
as §1
as §2, with “hSOS1” for “SOS”, “20” for “60”
as §3

SMILES | IC50 [1] | IC50 [2] | inhibition at 20 µM [3] | inhibition at 20 µM [2]
COc1cc2nc(C)nc(N[C@@H](C)c3ccc(-c4ccc5c(ccn5C)c4)s3)c2cc1OC (racemic) [Example 49, 6,7-dimethoxy-2-methyl-N-{1-[5-{1-methyl-1H-indol-5-yl)thiophen-2-yl]ethyl}quinazolin-4-amine] | 19.6 µM |  |  | 
COc1cc2nc(C)nc(N[C@@H](C)c3ccc(-c4ccc5c(c4)OCCO5)s3)c2cc1OC (racemic) [Example 98, N-{1-[5-(2,3-dihydro-1,4-benzodioxin-6-yl)thiophen-2-yl]ethyl}-6,7-dimethoxy-2-methylquinazolin-4-amine] | 16.1 µM |  |  | 
CCCNC(=O)c1ccc(-c2ccc([C@H](C)Nc3nc(C)nc4cc(OC)c(OC)cc34)s2)cc1 (racemic) [Example 141, 4-(5-{1-[(6,7-dimethoxy-2-methylquinazolin-4-yl)amino]ethyl}thiophen-2-yl)-N-propylbenzamide] | 5.63 µM | 11.1 µM |  | 
COc1cc2nc(C)nc(N[C@@H](C)c3ccc(-c4cccc(OC(F)(F)F)c4)s3)c2cc1OC (racemic) [Example 151, 6,7-dimethoxy-2-methyl-N-[1-{5-[3-(trifluoromethoxy)phenyl]thiophen-2-yl}ethyl]quinazolin-4-amine] | 10.4 µM | 13.3 µM |  | 
COc1cc2nc(C)nc(N[C@@H](C)c3ccc(-c4ccc5c(c4)OCO5)s3)c2cc1OC (racemic) [Example 163, N-{1-[5-(1,3-benzodioxol-5-yl)thiophen-2-yl]ethyl}-6,7-dimethoxy-2-methylquinazolin-4-amine] | 13.6 µM |  |  | 
COc1cccc(-c2ccc([C@H](C)Nc3nc(C)nc4cc(OC)c(OC)cc34)s2)c1 (racemic) [Example 167, 6,7-dimethoxy-N-{1-[5-(3-methoxyphenyl)thiophen-2-yl]ethyl}-2-methylquinazolin-4-amine] | 16.9 µM |  |  | 
COc1cc2nc(C)nc(N[C@@H](C)c3ccc(-c4cccc(C(F)(F)F)c4)s3)c2cc1OC (racemic) [Example 168, 6,7-dimethoxy-2-methyl-N-[1-{5-[3-(trifluoromethyl)phenyl]thiophen-2-yl}ethyl]quinazolin-4-amine] | 12.2 µM |  |  | 
COc1cc2nc(C)nc(N[C@@H](C)c3ccc(-c4ccc5c(ccn5C)c4)s3)c2cc1OC (stereo in doubt) [Example 49, 6,7-dimethoxy-2-methyl-N-{1-[5-{1-methyl-1H-indol-5-yl)thiophen-2-yl]ethyl}quinazolin-4-amine] |  |  | 35% | 36%
COc1cc2nc(C)nc(N[C@@H](C)c3ccc(-c4ccc5c(c4)OCCO5)s3)c2cc1OC (stereo in doubt) [Example 98, N-{1-[5-(2,3-dihydro-1,4-benzodioxin-6-yl)thiophen-2-yl]ethyl}-6,7-dimethoxy-2-methylquinazolin-4-amine] |  |  | 43% | 24%
CCCNC(=O)c1ccc(-c2ccc([C@H](C)Nc3nc(C)nc4cc(OC)c(OC)cc34)s2)cc1 (stereo in doubt) [Example 141, 4-(5-{1-[(6,7-dimethoxy-2-methylquinazolin-4-yl)amino]ethyl}thiophen-2-yl)-N-propylbenzamide] |  |  | 25% | 
COc1cc2nc(C)nc(N[C@@H](C)c3ccc(-c4cccc(OC(F)(F)F)c4)s3)c2cc1OC (stereo in doubt) [Example 151, 6,7-dimethoxy-2-methyl-N-[1-{5-[3-(trifluoromethoxy)phenyl]thiophen-2-yl}ethyl]quinazolin-4-amine] |  |  | 51% | 
COc1cc2nc(C)nc(N[C@@H](C)c3ccc(-c4ccc5c(c4)OCO5)s3)c2cc1OC (stereo in doubt) [Example 163, N-{1-[5-(1,3-benzodioxol-5-yl)thiophen-2-yl]ethyl}-6,7-dimethoxy-2-methylquinazolin-4-amine] |  |  | 42% | 35%
COc1cccc(-c2ccc([C@H](C)Nc3nc(C)nc4cc(OC)c(OC)cc34)s2)c1 (stereo in doubt) [Example 167, 6,7-dimethoxy-N-{1-[5-(3-methoxyphenyl)thiophen-2-yl]ethyl}-2-methylquinazolin-4-amine] |  |  | 40% | 37%
COc1cc2nc(C)nc(N[C@@H](C)c3ccc(-c4cccc(C(F)(F)F)c4)s3)c2cc1OC (stereo in doubt) [Example 168, 6,7-dimethoxy-2-methyl-N-[1-{5-[3-(trifluoromethyl)phenyl]thiophen-2-yl}ethyl]quinazolin-4-amine] |  |  | 38% | 32%
